Experimental findings from patent publication US10130611B2, “Use of benzo-heterocycle derivatives for preventing and treating cancer or for inhibiting cancer metastasis” (MEDICINAL BIOCONVERGENCE RESEARCH CENTER, priority 2009, dated 2018) are described below.

T1 sequence (Q15046 whole entry): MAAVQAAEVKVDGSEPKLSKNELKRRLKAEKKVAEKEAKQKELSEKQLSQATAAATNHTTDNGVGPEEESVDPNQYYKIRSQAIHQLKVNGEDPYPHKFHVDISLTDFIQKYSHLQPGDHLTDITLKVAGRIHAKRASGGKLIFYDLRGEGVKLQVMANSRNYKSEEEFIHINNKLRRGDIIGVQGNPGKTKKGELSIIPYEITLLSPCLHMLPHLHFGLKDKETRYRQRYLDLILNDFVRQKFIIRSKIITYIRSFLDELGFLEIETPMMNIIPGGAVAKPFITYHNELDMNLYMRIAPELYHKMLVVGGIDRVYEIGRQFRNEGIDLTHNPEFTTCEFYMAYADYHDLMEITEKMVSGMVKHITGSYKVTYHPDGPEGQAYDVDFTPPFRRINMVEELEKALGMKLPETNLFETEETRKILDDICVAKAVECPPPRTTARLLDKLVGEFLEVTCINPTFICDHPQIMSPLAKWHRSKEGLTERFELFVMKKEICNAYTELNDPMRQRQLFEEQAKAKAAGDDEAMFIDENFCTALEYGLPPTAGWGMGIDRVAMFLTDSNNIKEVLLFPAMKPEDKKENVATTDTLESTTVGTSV

The test system of one assay is A549 cells. As to the kind of experiment: Laminin-dependent membrane translocation of KRS and 67LR with kinase inhibitors. It counts as cell-based, human. The settings on record: inhibitor 3 hours then laminin 1 hour. As for the experimental part: (§1) In FIG. 7, A549 cells were treated with laminin (10 μg/ml), and the levels of 67LR, 37LRP and KRS were determined by western blotting at the indicated times. Hsp90 and cadherin (Cad) were used as markers for cytoplasm and membrane, respectively. In FIG. 8, A549 cells untreated or treated with laminin for 1 hour were subjected to immunofluorescence staining with anti-67LR (MLuC5, Santacruz, sc-59732) (red) and KRS antibodies (green). In FIG. 9, A549 cells were treated with U73122 (U), staurosporin (ST) and LY294002 (LY) that inhibit PLC-gamma, PKC and PI3K, respectively, for 3 hours, and then treated with laminin for 1 hour. Then, it was determined how these kinase inhibitors would affect the cytoplasm and membrane of 67LR and KRS. In FIG. 10, A549 cells were transfected with Myc-KRS, and incubated for 24 hours. Then, the cells were treated with the indicated drugs and then with laminin as above. Myc-KRS was immunoprecipitated, and immunoblotted with anti-p-Thr, -Ser, and -Tyr antibodies. In FIG. 11, A549 cells were transfected with Myc-KRS, and cultured for 24 hours. […] Myc-KRS was immunoprecipitated, and co-precipitation of 67LR was determined by western blotting. […] EPRS (glutamyl-prolyl-tRNA synthetase) was immunoprecipitated with its specific antibody (AbCam), and co-precipitation of KRS was determined by western blotting (upper). […]
Turning to `CN[C@@H]1C[C@H]2O[C@@](C)([C@@H]1OC)n1c3ccccc3c3c4c(c5c6ccccc6n2c5c31)C(=O)NC4` [staurosporin], the “Laminin-dependent increase of KRS and 67LR in the membrane fraction” value is on record as “larger laminin-dependent increase of 67LR than those in the control group”.
In the case of `COc1ccc2c(c1)CC[C@@H]1[C@@H]2CC[C@]2(C)[C@@H](NCCCCCCN3C(=O)C=CC3=O)CC[C@@H]12` [U73122], the “Laminin-dependent increase of KRS and 67LR in the membrane fraction” value was “larger laminin-dependent increase of 67LR than those in the control group”.

Another assay addresses T1, interaction between KRS and laminin receptor (67LR) (Homo sapiens, UniProt Q15046).
T1 construct: expressed in transfected cells; host or cells: yeast EGY/SH cells
Kind of assay: Yeast two hybrid growth assay, LexA-KRS/B42-LR pair. It counts as cell-based. The settings on record: growth inhibition of yeast EGY/SH cells with LexA-KRS/B42-LR vs control; 1 μl of 10 mg/ml compound per well, 6 days, absorbance 540 nm. As for the experimental part:
On the compound of the present invention obtained by screening a library of compounds, the extent of inhibition on the interaction between KRS and laminin receptor (67LR) was determined by a yeast two hybrid assay, as described below. KRS, LR, AIMP2, AIMP3 and MRS were cloned at LexA vector (clontech) and B42 vector (clontech) each so as to produce required vectors. From among the vectors, LexA-KRS vector and B42-LR vector were co-transformed into yeast EGY/SH cells, and then the yeast cells were diluted to an absorbance (540 nm wavelength) of 0.2 in galactose medium not containing uracil (Ura), histidine (His), tryptophane (Trp) and leucine (Leu), and placed in an amount of 200 u in a 96 well plate. 1 μl of each compound at a concentration of 10 mg/ml was placed in each well, incubated for 6 days, and the absorbance was measured at 540 nm. […] The inhibitory specificity of the selected compound was tested by using two different interaction pairs such as LexA-KRS/B42-AIMP2 and LexA-MRS/B42-AIMP3.
In order to determine if the compound of the present invention controls the interaction between KRS and laminin receptor, the present inventors determined the interaction between KRS and 67LR through treatment of the compound of the present invention.
Turning to `COc1ccc2oc(NC(=O)c3ccccc3)nc2c1` [Compound of formula 3, N-(5-Methoxy-benzooxazol-2-yl)-benzamide], the “Inhibition rate(%)” value was determined as 59.98%.

Still in this assay, the particulars now being: growth inhibition of yeast EGY/SH cells with LexA-KRS/B42-LR vs control; 1 μl of 10 mg/ml compound per well, 6 days, absorbance 540 nm; read-out: Inhibition rate(%).
A word on the inhibition: it is the percentage by which the read-out fell short of the control. For `Cc1cc(C)c(-c2nc3cc(N)ccc3o2)c(C)c1` [Compound of formula 14, 2-(2,4,6-Trimethyl-phenyl)-benzooxazol-5-ylamine], the inhibition at 10000 µg/mL (stock) was found to be 49.3%.
Consider `COc1ccc2oc(NC(=O)c3ccccc3)nc2c1` [Compound of formula 10, N-(5-Methoxy-benzooxazol-2-yl)-benzamide], for which the inhibition at 10000 µg/mL (stock) was 60%.
As to `O=C(Nc1nc2ccc([N+](=O)[O-])cc2s1)c1ccc(C(F)(F)F)cc1` [Compound of formula 12, N-(6-Nitro-benzothiazol-2-yl)-4-trifluoromethyl-benzamide], the inhibition at 10000 µg/mL (stock) worked out at 52.5%.
`O=[N+]([O-])c1ccc2oc(Nc3ccc(/N=N/c4ccccc4)cc3)nc2c1` [Compound of formula 7, (5-Nitro-benzooxazol-2-yl)-(4-phenylazo-phenyl)-amine]: the inhibition at 10000 µg/mL (stock) was 47.6%.
In the case of `Cc1ccc2oc(-c3ccccc3OCC(=O)O)nc2c1` [Compound of formula 13, [2-(5-Methyl-benzooxazol-2-yl)-phenoxy]-acetic acid], the inhibition at 10000 µg/mL (stock) amounted to 55.2%.
Regarding `O=C(Nc1nc2cc([N+](=O)[O-])ccc2o1)c1ccccc1` [Compound of formula 9, N-(5-Nitro-benzooxazol-2-yl)-benzamide], the inhibition at 10000 µg/mL (stock) turned out to be 36.9%.
In the case of `Clc1ccc2oc(Nc3ccc(Cl)c(Cl)c3)nc2c1` [Compound of formula 6, (5-Chloro-benzooxazol-2-yl)-(3,4-dichloro-phenyl)-amine], the inhibition at 10000 µg/mL (stock) turned out to be 52.8%.
`CCc1ccc(Nc2nc3cc(Cl)ccc3o2)cc1` [Compound of formula 5, (5-Chloro-benzooxazol-2-yl)-(4-ethyl-phenyl)-amine]: the inhibition at 10000 µg/mL (stock) worked out at 47.5%.
In the case of `Cc1ccc2oc(NC(=O)c3ccccc3)nc2c1` [Compound of formula 11, N-(5-Methyl-benzooxazol-2-yl)-benzamide], the inhibition at 10000 µg/mL (stock) amounted to 49.1%.
In the case of `Clc1ccc2oc(Nc3ccccc3)nc2c1` [Compound of formula 4, (5-Chloro-benzooxazol-2-yl)-phenyl-amine], the inhibition at 10000 µg/mL (stock) was 51.8%.
For `O=C(Nc1nc2ccccc2o1)c1ccccc1` [Compound of formula 8, N-Benzooxazol-2-yl-benzamide], the inhibition at 10000 µg/mL (stock) turned out to be 47.3%.
Turning to `COc1ccc2nc(NC(=O)c3ccccc3)oc2c1` [Compound of formula 2, N-(6-Methoxy-benzooxazol-2-yl)-benzamide], the inhibition at 10000 µg/mL (stock) worked out at 54.2%.
For `Fc1ccc(CNCc2c[nH]c3ccc(F)cc23)c(Cl)c1` [Compound of formula 17, (2-Chloro-4-fluoro-benzyl)-(5-fluoro-1H-indol-3-ylmethyl)-amine], the inhibition at 10000 µg/mL (stock) stood at 36.5%.
Consider `COc1cccc(OC)c1-c1nc2ccccc2s1` [Compound of formula 16, 2-(2,6-Dimethoxy-phenyl)-benzothiazole], for which the inhibition at 10000 µg/mL (stock) was found to be 47.6%.

The subject of a further assay is KRS. As to the kind of experiment: Laminin-induced phosphorylation of KRS (immunoblot p-Thr, -Ser, -Tyr). The settings on record: A549 cells transfected with Myc-KRS, inhibitor then laminin. It counts as cell-based, human. As for the experimental part:
as §1
As for `CN[C@@H]1C[C@H]2O[C@@](C)([C@@H]1OC)n1c3ccccc3c3c4c(c5c6ccccc6n2c5c31)C(=O)NC4` [staurosporin], the “laminin-induced phosphorylated KRS at threonine and serine” value was “did not have any effect”.
